Results from publication PMC6774960, “Design, synthesis and biological evaluation of a series of new resveratrol analogues as potential anti-cancer agents” (Royal Society Open Science, 2019).

Columns and labels:
[1] = MTT cytotoxicity test, Vero; assay type: cell-based, African green monkey; conditions: African green monkey, Vero cells (normal African green monkey kidney), average of three determinations
Protocol: (§1) Vero cells are non-tumorigenic cell lines and are important raw materials as the research and production of biological products. Vero cells show low tumorigenicity and had been approved for use in the production of human virus vaccines. Thus, Vero cells were chosen as a control for cytotoxicity. All compounds were evaluated for their cell toxicity against Vero and normal human hepatocytes cells line (LO2) using MTT assays.
(§2) The anti-proliferative and cytotoxicity activity was determined using MTT assay. Human cervical carcinoma HeLa cells, human hepatocellular carcinoma HepG2 cells, human lung carcinoma A549 cells were representative in the anti-proliferation assay, which were obtained from the Shanghai Institute of Cell Biology (Shanghai, China). Normal African green monkey kidney Vero cells were a gift from Dr Xiumiao He at Guangxi University for Nationalities. Normal human hepatocytes LO2 cells were a gift from Dr Xing Lin at Guangxi Medical University. The HepG2, Hela, LO2 and Vero cells were cultured in Dulbecco's modified Eagle's medium (DMEM, Gibco) and the A549 cells were cultured in RPMI1640 (Gibco), both media were supplemented with 10% fetal calf serum and antibiotics (100 IU ml^−1 penicillin, 100 IU ml^−1 streptomycin; Amresco).
(§3) Cells were seeded in 96-well microtiter plates at a density of 1 × 10^4 cells well^−1 and incubated with different concentrations of compound (6.25, 12.50, 25.00, 50.00 to 100.00 µM), cisplatin and paclitaxel in RPMI-1640 or DMEM at 37°C with 5% CO2. After 24 h, cell morphology was observed using a light microscope, and then 20 µl of MTT solution (5 mg ml^−1) was added to the well and incubated for 4 h, then cell survival was determined by measuring the optical density (OD) absorbance at a wavelength of 570 nm using an ELISA microplate reader. The inhibition rate (IR) following each compound treatment was determined by the following equation: IR (%) = (1 − ODexp/ODcon) × 100%, where ODexp and ODcon are the OD of the treated and untreated cells, respectively. Cisplatin and paclitaxel were used as positive control drugs.

A549 cells = assay: MTT anti-proliferation assay, A549; assay type: cell-based, human; conditions: average of three determinations
Protocol: The 22 synthesized resveratrol compounds were evaluated for anti-proliferative activities against three human cancer cell lines, including HepG2, A549 and HeLa cells, using 3-[4,5-dimethylthiazol-2-yl]-2,5 diphenyl tetrazolium bromide (MTT) assays. Paclitaxel, a well-known tubulin inhibitor, was used as a positive control. […] Therefore, the inhibitory activity of the compounds depended not only on the 2-position substitution of acrylic acid, but also on the 3-position substitution of acrylic acid.
as §2, §3

HepG2 cells = assay: Apoptosis analysis, Annexin V-FITC/PI flow cytometry; assay type: cell-based, human; conditions: 24 h
Protocol: To investigate the effect of compound r on the apoptosis of HepG2 cells, cells were treated with different concentrations of compound r (0, 5, 15 and 45 µM) for 24 h and apoptosis was detected by flow cytometry analysis.
Figure 4. Effect of compound r on the apoptosis in HepG2 cells. Analysis of compound r induced apoptosis in HepG2 cells. The HepG2 cells were treated with 0, 5, 15 or 45 µM by flow cytometry. Cells were stained using propidium iodide (IP) and fluorescein isothiocyanate (FITC). The data manifested the percentage of early apoptotic cells (lower right) or late apoptosis and cell death (upper right) in each quadrant. TEXT PRINTED IN THE PICTURE: control: 7.22% (20 μM); 51.10% (20 μM); 18.67% (20 μM); 23.01% (20 μM) | compound r: 10.95% (low (5 μM)); 22.17% (low (5 μM)); 45.61% (low (5 μM)); 21.27% (low (5 μM)); 10.26% (middle (15 μM)); 18.51% (middle (15 μM)); 33.78% (middle (15 μM)); 37.45% (middle (15 μM)); 7.78% (high (45 μM)); 32.94% (high (45 μM)); 28.71% (high (45 μM)); 30.57% (high (45 μM)) DOUBTS OF THE COPYIST ABOUT THIS PICTURE: The quadrant percentages have no printed measure. For each plot they are listed in the order upper left, upper right, lower left, lower right (axes PI vs annexin V FITC). / The blank (0 μM) plot prints 0.00%, 0.01%, 99.91% (faint, partly hidden by dots, uncertain) and 0.08%. It is left out because no substance is present. / control (20 μM): 18.67% and 23.01% are partly overlaid by dots, so the digits are not fully certain. / compound r, low (5 μM): 21.27% is partly overlaid by dots; the first digit could be 2 or 3. 45.61% is in small print. / compound r, middle (15 μM): 33.78% and 37.45% are in small print, so 3/8 are not fully certain. / compound r, high (45 μM): 30.57% is partly overlaid by dots, and 28.71% is in small print. / The label 'compound r' is printed only on the axis of the bar chart. The scatter plots themselves are labelled only low, middle and high.
HepG2 cells seeded in 6-well plates were treated with compound r (0, 5, 15, 45 µM) or cisplatin (20 µM) for 24 h. […] The stained cells were detected via a flow cytometer.

[2] = MTT cytotoxicity test, LO2; assay type: cell-based, human; conditions: human, LO2 cells (normal human hepatocytes), average of three determinations
Protocol: as §1, §2, §3

COc1ccc(C(=Cc2cc(C(F)(F)F)ccc2Cl)C(=O)O)cc1 [compound r, 3-(2-chloro-5-(trifluoromethyl)phenyl)-2-(4-methoxyphenyl) acrylic acid]
CC50 at 24 h [1]: 84 ± 3 µM | IC50 (A549 cells; 24 h): 3.8 ± 0.3 µM | IC50 (A549 cells; Homo sapiens, A549, 24 h): 3.77 µM | apoptotic cell population (HepG2 cells; HepG2, 5 µM): 43.44% | apoptotic cell population (HepG2 cells; HepG2, 15 µM): 55.96% | apoptotic cell population (HepG2 cells; HepG2, 45 µM): 63.51% | CC50 at 24 h [2]: > 100 µM
